logP data for 47 compounds are collected here from the SangsterLogP compilation.

As a reminder, the logP is a log measure of how a compound divides between an organic and an aqueous phase.

This data set can be described thus: method code SF, from PMID: 3778562.
With `O=C(O)CCC(=O)O[C@H]1Cc2c(O)cc(O)cc2O[C@@H]1c1ccc(O)c(O)c1`, the logP came to 1.41.

`COc1ccc(-c2oc3cc(O)cc(O)c3c(=O)c2O)cc1`: the logP was 3.97.

On to `O=C(Cc1ccccc1)O[C@H]1Cc2c(O)cc(O)cc2O[C@@H]1c1ccc(O)c(O)c1`, for which the log partition coefficient (logP) worked out at 3.09.

On to `O=C(Nc1ccccc1)OC1Cc2c(O)cc(O)cc2OC1c1ccc(O)c(O)c1` (configuration not stated), for which the logP worked out at 3.05.

As for `O=C1CC(c2ccc(O)cc2)Oc2cc(O)cc(O)c21` (stereo in doubt), the logP was determined as 2.52.

`COc1cc(OC)c2c(c1)O[C@H](c1ccc(OC)c(OC)c1)[C@@H](O)C2` displayed a lipophilicity (logP) of 3.1.

In turn, `O=C(O[C@H]1Cc2c(O)cc(O)cc2O[C@@H]1c1ccc(O)c(O)c1)c1ccc(F)cc1` registered a log partition coefficient (logP) of 3.64.

Regarding `CCCCCCCCCCCCCCCCCCO[C@H]1Cc2c(O)cc(O)cc2O[C@@H]1c1ccc(O)c(O)c1`, the logP was found to be 9.91.

`Oc1cc(O)c2c(c1)OC(c1ccc(O)c(O)c1)C(O)C2O` (configuration not stated) came in with a logP of 0.95.

For `O=c1c(O)c(-c2ccc(O)cc2)oc2cc(O)cc(O)c12`, the logP was 3.39.

Regarding `CCCO[C@H]1Cc2c(O)cc(O)cc2O[C@@H]1c1ccc(O)c(O)c1`, the log partition coefficient (logP) was found to be 2.12.

As to `Oc1cc(O)c2c(c1)O[C@@H](c1ccc(O)c(O)c1)C(OCO[C@@H]1Cc3c(O)cc(O)cc3O[C@H]1c1ccc(O)c(O)c1)C2` (some centres not stated), the logP amounted to 2.15.

The compound `C[C@@H]1O[C@@H](Oc2c(-c3ccc(O)c(O)c3)oc3cc(O)cc(O)c3c2=O)[C@H](O)[C@H](O)[C@H]1O` gave a logP of 1.78.

The compound `O=c1cc(-c2ccc(O)cc2)oc2cc(O)cc(O)c12` returned a logP of 3.02.

For the compound `Oc1cc(O)c2c(c1)OC(c1ccc(O)c(O)c1)C(OCCCc1ccccc1)C2` (configuration not stated), the lipophilicity (logP) came to 3.78.

Consider `CC(=O)Oc1ccccc1C(=O)OC1Cc2c(O)cc(O)cc2OC1c1ccc(O)c(O)c1` (configuration not stated), for which the logP came to 2.87.

With `O=C(O[C@H]1Cc2c(O)cc(O)cc2O[C@@H]1c1ccc(O)c(O)c1)c1ccccc1`, the logP was found to be 3.44.

`O=c1cc(-c2ccc(O)c(O)c2)oc2cccc(O)c12` returned a logP of 3.31.

On to `O=c1c(O)c(-c2cccc(O)c2)oc2cc(O)ccc12`, for which the logP came to 2.51.

`CCCC(=O)O[C@H]1Cc2c(O)cc(O)cc2O[C@@H]1c1ccc(O)c(O)c1` showed a logP of 2.47. The logP values of the last two compounds are within 0.2 log units of each other.

In the case of `CCCCO[C@H]1Cc2c(O)cc(O)cc2O[C@@H]1c1ccc(O)c(O)c1`, the logP was 2.64.

Consider `N#CCCO[C@H]1Cc2c(O)cc(O)cc2O[C@@H]1c1ccc(O)c(O)c1`, for which the logP is 0.96.

In turn, `CCCCCCCO[C@H]1Cc2c(O)cc(O)cc2O[C@@H]1c1ccc(O)c(O)c1` showed a lipophilicity (logP) of 4.2.

Regarding `CO[C@H]1Cc2c(O)cc(O)cc2O[C@@H]1c1ccc(O)c(O)c1`, the logP worked out at 1.

`O=C(OC1Cc2c(O)cc(O)cc2OC1c1ccc(O)c(O)c1)c1ccc(O)c(O)c1` (configuration not stated) yielded a logP of 2.45.

In the case of `O=c1cc(-c2ccccc2)oc2cc(O)cc(O)c12`, the log partition coefficient (logP) was 3.52.

In turn, `O=C1C[C@@H](c2ccc(O)c(O)c2)Oc2cc(O)ccc21` yielded a logP of 1.94.

`COc1cc(OC)c2c(c1)OC(c1ccc(OC)c(OC)c1)C(OC)C2` (configuration not stated) came in with a logP of 3.68.

Compound `O=C1C[C@@H](c2cccc(O)c2)Oc2cc(O)cc(O)c21` had a logP of 2.51.

Compound `CCCCCCCCCCCCCCCC(=O)O[C@H]1Cc2c(O)cc(O)cc2O[C@@H]1c1ccc(O)c(O)c1` returned a logP of 8.7.

On to `O=C1C[C@@H](c2ccc(O)c(O)c2)Oc2cc(O)cc(O)c21`, for which the logP stood at 2.02.

The compound `Cc1cc(C)c2c(c1)O[C@H](c1ccc(C)c(C)c1)[C@@H](O)C2` displayed a logP of 3.1.

Take `O=C1C[C@@H](c2ccc(O)cc2)Oc2cc(O[C@H]3O[C@@H](CO)[C@H](O)[C@@H](O)[C@@H]3O)cc(O)c21`: the log partition coefficient (logP) was -0.44.

For `O=C1C[C@@H](c2ccc(O)c(O)c2)Oc2cccc(O)c21`, the log partition coefficient (logP) came out at 2.81.

`O=c1c(O)c(-c2ccc(O)cc2)oc2cc(O)ccc12` gave a logP of 3.02.

Take `COc1ccc(-c2oc3ccccc3c(=O)c2O)cc1OC`: the logP is 4.17.

`CCCCCCCCCC(=O)O[C@H]1Cc2c(O)cc(O)cc2O[C@@H]1c1ccc(O)c(O)c1` yielded a logP of 5.58.

`COc1ccc(-c2cc(=O)c3c(O)cc(O[C@@H]4O[C@H](CO[C@@H]5O[C@@H](C)[C@H](O)[C@@H](O)[C@H]5O)[C@@H](O)[C@H](O)[C@H]4O)cc3o2)cc1O` yielded a logP of 0.14.

`COc1ccc([C@@H]2CC(=O)c3c(O)cc(O)cc3O2)cc1O`: the logP stood at 2.6.

Turning to `NCCCOC1Cc2c(O)cc(O)cc2OC1c1ccc(O)c(O)c1` (configuration not stated), the log partition coefficient (logP) was found to be 0.52.

For the compound `COc1ccc(-c2cc(=O)c3c(O)cc(O)cc3o2)cc1O`, the logP stood at 3.1.

On to `C[C@@H]1O[C@@H](O[C@H]2[C@H](Oc3cc(O)c4c(c3)O[C@H](c3ccc(O)cc3)CC4=O)O[C@H](CO)[C@@H](O)[C@@H]2O)[C@H](O)[C@H](O)[C@H]1O`, for which the logP was -0.44.

Regarding `CCCCCCCCCCCCCCCCO[C@H]1Cc2c(O)cc(O)cc2O[C@@H]1c1ccc(O)c(O)c1`, the logP is 8.87.

For `O=c1cc(-c2ccc(O)c(O)c2)oc2cc(O)ccc12`, the logP was found to be 1.94.

In the case of `CCCCCCCCCCCCO[C@H]1Cc2c(O)cc(O)cc2O[C@@H]1c1ccc(O)c(O)c1`, the logP was 6.79.

The compound `O=c1c(O)c(-c2ccc(O)cc2O)oc2cc(O)cc(O)c12` came in with a logP of 2.61.

The compound `O=c1c(O)c(-c2ccc(O)c(O)c2)oc2cc(O)ccc12` had a logP of 2.53.
